Laboratory results as given in patent publication US6461997B1, “Triazole sulfones having herbicidal activity” (Monsanto Technology LLC, priority 1999, dated 2002).

Tests used:
[1] = tested on: PANDI (fall panicum); test: Pre-emergence herbicidal activity, warm season; assay type: in vivo, Panicum dichotomiflorum; settings: GR80 = lowest tested rate (300, 100, 30, 10 g/ha) with 80% or greater inhibition; approx. 14 days after treating; 30/21° C.
Method in brief: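 Seeds sown in sterilised fertilised topsoil received surface-applied compound in 50:50 acetone/water, typically at 300, 100, 30 and 10 g/ha, then greenhouse-grown at 30/21° C (warm-season species) or 18/13° C (cool-season species). Percent inhibition versus untreated plants was scored at about 14 days, giving GR80; an asterisk marks activity short of 80% at the top rate.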

[2] = tested on: POLCO (wild buckwheat); test: Pre-emergence herbicidal activity, cool season; assay type: in vivo, Polygonum convolvulus; settings: lowest tested rate with 80% or greater inhibition; rates 300, 100, 30, 10 g/ha; about 14 days
Method in brief: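 Activity is expressed as the rate giving 80% inhibition, with 300, 100, 30 and 10 g/ha typically tested. An asterisk marks activity short of 80% at the top rate. Warm-season grasses were held at 30/21 °C; cool-season blackgrass and wild buckwheat at 18/13 °C; scoring at about 14 days.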

[3] = tested on: STEME (common chickweed); test: Pre-emergence herbicidal activity, cool season; assay type: in vivo, Stellaria media; settings: lowest tested rate with 80% or greater inhibition; rates 300, 100, 30, 10 g/ha; about 14 days
Method in brief: (§1)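 GR80 values derive from percent inhibition relative to untreated plants, read roughly 14 days after sowing and pre-emergence soil-surface treatment (compound in 50:50 acetone/water; rates typically 10, 30, 100, 300 g/ha). Warm-season weeds grew at 30/21° C day/night, cool-season ones at 18/13° C; an asterisk marks activity without reaching 80% at the highest rate.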

[4] = tested on: AGSST (creeping bentgrass); test: Pre-emergence herbicidal activity, cool season; assay type: in vivo, Agrostis stolonifera; settings: GR80 = lowest tested rate (300, 100, 30, 10 g/ha) with 80% or greater inhibition; approx. 14 days after treating; 18/13° C.
Method in brief: as §1

[5] = tested on: BRAPP (broadleaf signalgrass); test: Pre-plant incorporated (PPI) herbicidal activity, warm season; assay type: in vivo, Brachiaria platyphylla; settings: for PPI activity GR80, BRAPP: pre-plant incorporated, lowest tested rate with 80% or greater inhibition, about 14 days
Protocol: (§2) In another set of tests, the pre-plant incorporated (PPI) activity of compounds of this invention was evaluated on the same species as for the pre-emergence tests described above. In the PPI tests the following procedure, designed to simulate PPI application, was used.
(§3) A pre-prepared topsoil mixture (described above) was placed in a pot and compacted to a depth of 1.0 to 1.25 cm from the top of the pot. Seeds of each of several monocotyledonous and dicotyledonous annual plant species were placed on top of the soil. A sufficient quantity of soil to cover the seeds and level fill the pot was weighed into an open container. A known amount of the test compound was dissolved or suspended in an organic solvent and applied by spraying to this cover soil. The cover soil was thoroughly mixed to distribute the test compound throughout the cover soil, and was then applied as a cover layer over the seeds. Untreated soil was used as a cover layer for control pots. After treatment the plants were placed in a greenhouse where they received 0.64 cm of overhead irrigation. All subsequent watering consisted of a light overhead mist and/or subirrigation as needed for germination and growth. Tables 9 and 10 below relate to warm season plant species which were placed after pre-emergence treatment in a greenhouse with a 30/21° C. day/night temperature regime. Tables 11 and 12 below relates to cool season plant species placed after pre-emergence treatment in a greenhouse or growth chamber with an 18/13° C. day/night temperature regime. Only the compounds of Examples 1, 6, 8, 11, 13 and 15-20 were included in PPI tests.
(§4) Approximately 14 days after planting and treating, the plants were observed and herbicidal efficacy recorded as percent inhibition by comparison with untreated plants.

[6] = tested on: SINAR (wild mustard); test: Pre-plant incorporated (PPI) herbicidal activity, cool season; assay type: in vivo, Sinapis arvensis; settings: pre-plant incorporated; lowest tested rate with 80% or greater inhibition; about 14 days
Protocol: as §2, §3, §4

[7] = tested on: ALOMY (blackgrass); test: as above; assay type: in vivo, Alopecurus myosuroides; settings: pre-plant incorporated; lowest tested rate with 80% or greater inhibition; about 14 days
Protocol: as §2, §3, §4

[8] = tested on: BROTE (downy brome); test: as above; assay type: in vivo, Bromus tectorum; settings: pre-plant incorporated; lowest tested rate with 80% or greater inhibition; about 14 days
Protocol: as §2, §3, §4

[9] = tested on: AVEFA (wild oat); test: as above; assay type: in vivo, Avena fatua; settings: pre-plant incorporated; lowest tested rate with 80% or greater inhibition; about 14 days
Protocol: as §2, §3, §4

[10] = tested on: corn (ZEAMX); test: Selectivity test, PPI, warm season crop; assay type: in vivo, Zea mays; settings: Zea mays, PPI application, read-out: Percent inhibition ZEAMX
Protocol: as §3, §4
Additional pre-emergence and PPI tests were conducted by the procedures described above, on warm and cool season weed species in the presence of crop species, to assess herbicidal selectivity. Crop species included in warm season tests were corn (Zea mays, ZEAMX), rice (Oryza sativa, ORYSA) and soybean (Glycine max, GLYMX). Crop species included in cool season tests were wheat (Triticum aestivum, TRZAW), barley (Hordeunm vulgare, HORVX) and oilseed rape (Brassica napus, BRSNS).
Tables 15 and 16 relate to pre-emergence and PPI tests respectively on warm season species. Table 17 relates to pre-emergence tests on cool season species.

| SMILES | Pre-emergence activity (GR80) PANDI [1] | Pre-emergence activity GR80, POLCO [2] | Pre-emergence activity GR80, STEME [3] | Pre-emergence activity (GR80) AGSST [4] | PPI activity GR80, BRAPP [5] | PPI activity GR80, SINAR [6] | PPI activity GR80, ALOMY [7] | PPI activity GR80, BROTE [8] | PPI activity GR80, AVEFA [9] | inhibition at 10 g/ha ([5]; Urochloa platyphylla, PPI application, 10 g/ha, read-out: Percent inhibition BRAPP) | inhibition at 30 g/ha ([5]; Urochloa platyphylla, PPI application, 30 g/ha, read-out: Percent inhibition BRAPP) | inhibition at 100 g/ha ([5]; Urochloa platyphylla, PPI application, 100 g/ha, read-out: Percent inhibition BRAPP) | inhibition at 300 g/ha ([5]; Urochloa platyphylla, PPI application, 300 g/ha, read-out: Percent inhibition BRAPP) | inhibition at 900 g/ha ([5]; Urochloa platyphylla, PPI application, 900 g/ha, read-out: Percent inhibition BRAPP) | inhibition at 10 g/ha ([10]; 10 g/ha) | inhibition at 30 g/ha ([10]; 30 g/ha) | inhibition at 100 g/ha ([10]; 100 g/ha) | inhibition at 300 g/ha ([10]; 300 g/ha) | inhibition at 900 g/ha ([10]; 900 g/ha) |
| --- | --- | --- | --- | --- | --- | --- | --- | --- | --- | --- | --- | --- | --- | --- | --- | --- | --- | --- | --- |
| CCN(CC)C(=O)n1cnc(S(=O)(=O)C(F)(F)C(F)(F)SC)n1 [Example 14] | 100 g/ha | 300 g/ha | 300 g/ha | 30 g/ha | – | – | – | – | – | – | – | – | – | – | – | – | – | – | – |
| CCN(CC)C(=O)n1cnc(S(=O)(=O)C(F)(F)C(=O)c2ccccc2)n1 [Example 6] | 300 g/ha | 300 g/ha | 300 g/ha | 100 g/ha | 300 g/ha | 300 g/ha | 300 g/ha | * (activity observed, at least at highest rate, but <80% inhibition) | 300 g/ha | – | – | – | – | – | – | – | – | – | – |
| CCN(CC)C(=O)n1cnc(S(=O)(=O)C(F)F)n1 [Example 15, 1-(N,N-diethylcarbamoyl)-3-(difluoromethylsulfonyl)-1,2,4-triazole] | 100 g/ha | – | – | – | 100 g/ha | 100 g/ha | 100 g/ha | * (activity observed, at least at highest rate, but <80% inhibition) | 300 g/ha | 0% | 0% | 95% | 99% | 100% | 0% | 0% | 20% | 60% | 85% |
